# Source: patent publication US11028090B2 (Dong Wha Pharm. Co., Ltd., priority 2017, dated 2021)
# Where a name gives a salt, the structure may show the parent alone. Read-outs that look alike come from different tables or passages of the source.
# Molecular target: BRD4 (BD1+BD2) bromodomain (Homo sapiens (Human), UniProt O60885)
# Assay: BRD4 binding inhibition (AlphaScreen, GST-BRD4 vs tetraacetylated histone H4 peptide)
# Procedure: A mixture comprising 100 nM GST-BRD4 (BD1+BD2) and 100 nM biotinylated acetyl-histone H4 (Lys5,8,12,16) peptide was prepared in assay buffer (50 mM HEPES pH 7.4; 25 mM NaCl; 0.05% Tween 20; 0.1% bovine serum albumin (BSA); 10 mM dithiothreitol (DTT)). After adding 6 μl of the mixture to the diluent, 6 μl of the pre-mixed AlphaLISA Glutathione Acceptor Beads and AlphaScreen Streptavidin Donor Beads (PerkinElmer, 10 μg/ml in assay buffer, respectively) was added thereto. The samples were incubated in the dark at room temperature for 30 minutes (shaking at 300 rpm). Then, the signals were measured with PerkinElmer Envision HTS Multilabel Reader using an alpha screen protocol of PerkinElmer. Each plate contained the negative control in which biotinylated acetyl-histone H4 peptide and GST-BRD4 (BD1+BD2) were replaced by assay buffer. In the case of using the software GraphPad Prism for calculation, the negative control point was input as a low standard value. The positive control (probe molecule l-BET762 containing protein/peptide mixture) proceeded to pipetting.
# [1] = GST-BRD4 (BD1+BD2) vs biotinylated acetyl-histone H4 peptide, AlphaScreen, read-out: BRD4 IC50
# [2] = GST-BRD4 (BD1+BD2) / biotinylated acetyl-histone H4 (Lys5,8,12,16) peptide, read-out: IC50, BRD4 binding inhibition
Compound,IC50 [1] [nM],IC50 [2] [nM]
"Cc1nnc2c(NCCCCNC(=O)OC(C)(C)C)nc3cc(C(=O)O)ccc3n12 [Example 200, 4-[(4-tert-butoxycarbamoylamino)-butylamino]-1-methyl-[1,2,4]triazolo[4,3-a]quinoxaline-7-carboxylic acid]",71,–
"Cc1nnc2c(NCCCCNC(=O)Nc3ccccc3)nc3ccc(F)cc3n12 [Example 53, 1-[4-(8-fluoro-1-methyl-[1,2,4]triazolo[4,3-a]quinoxaline-4-ylamino)-butyl]-3-phenyl-urea]",60,–
"Cc1nnc2c(NCCCCNC(=O)OC(C)(C)C)nc3cc(N)ccc3n12 [Example 243, [4-(7-amino-1-methyl-[1,2,4]triazolo[4,3-a]quinoxaline-4-ylamino)-butyl]-carbamic acid-tert-butylester]",65,–
"Cc1nnc2c(NCCCCNC(=O)[C@H](O)C(C)C)nc3cc(N4CCSCC4)ccc3n12 [Example 524, N-[4-(7-thiomorphonyl-4-yl-1-methyl-[1,2,4]triazolo[4,3-a]quinoxaline-4-ylamino)-butyl]-2-(R)-hydroxy-3-methyl-butyramide]",69,–
"COCCOc1ccc2c(c1)nc(NCCCCN)c1nnc(C)n12 [Example 364, N^1-[7-(2-methoxy-ethoxy)-1-methyl-[1,2,4]triazolo[4,3-a]quinoxaline-4-yl]-butane-1,4-diamine ditrifluoroacetic acid]",98,–
"Cc1nnc2c(NCCCCNC(=O)NC(C)(C)C)nc3ccc(F)cc3n12 [Example 52, 1-tert-butyl-3-[4-(8-fluoro-1-methyl-[1,2,4]triazolo[4,3-a]quinoxaline-4-ylamino)-butyl]-urea]",70,–
"Cc1nnc2c(NCCCCN)nc3cc(N4CCOCC4)ccc3n12 [Example 498, N^1-(1-methyl-7-morpholine-4-yl-[1,2,4]triazolo[4,3-a]quinoxaline-4-yl)-butane-1,4-diamine dihydrochloride]",98,–
"COc1cc2nc(NCCCCNC(=O)CC(C)C)c3nnc(C(F)(F)F)n3c2cc1OC [Example 593, N-[4-(7,8-dimethoxy-1-trifluoromethyl-[1,2,4]triazolo[4,3-a]quinoxaline-4-ylamino)-butyl]-3-methyl-butyramide]",92,–
COc1cc2nc(NCCCCNC(=O)Nc3ccccc3)c3nnc(C)n3c2cc1OC [Example 94],57,–
"COc1ccc2c(c1)nc(NCCCCNC(=O)N(C)C)c1nnc(C)n12 [Example 334, 3-[4-(7-methoxy-1-methyl-[1,2,4]triazolo[4,3-a]quinoxaline-4-ylamino)-butyl]-1,1-dimethyl-urea]",60,–
"COc1cc2nc(NCCCCNC(=O)CC(C)C)c3nnc(C)n3c2cc1Cc1ccc([N+](=O)[O-])cc1 [Example 339, N-{4-[7-methoxy-1-methyl-8-(4-nitro-benzyl)-[1,2,4]triazolo[4,3-a]quinoxaline-4-ylamino]-butyl}-3-methyl-butyramide]",46,≤ 50
"Cc1nnc2c(NCCCCNC(=O)[C@H](O)C(C)C)nc3cc(F)c(F)cc3n12 [Example 38, N-[4-(7,8-difluoro-1-methyl-[1,2,4]triazolo[4,3-a]quinoxaline-4-ylamino)-butyl]-2-(R)-hydroxy-3-methyl-butyramide]",97,–
"COc1ccc2c(c1)nc(NCCCCNC(=O)[C@H](C(C)C)N1CCOCC1)c1nnc(C)n12 [Example 314, N-[4-(7-methoxy-1-methyl-[1,2,4]triazolo[4,3-a]quinoxaline-4-ylamino)-butyl]-3-methyl-2-(S)-morpholine-4-yl-butyramide]",56,–
"N-(4-{7-[4-(N-hydroxycarbamimidoyl)-benzoyl]-1-methyl-[1,2,4]triazolo[4,3-a]quinoxaline-4-ylamino}-butyl)-3-methyl-butyramide [Example 347]",18,≤ 50
"COc1c(C)ccc2c1nc(NCCCCNC(=O)[C@H](O)C(C)C)c1nnc(C)n12 [Example 136, 2-(R)-hydroxy-N-[4-(6-methoxy-1,7-dimethyl-[1,2,4]triazolo[4,3-a]quinoxaline-4-ylamino)-butyl]-3-methyl-butyramide]",58,≤ 50
"Cc1nnc2c(NCCCCNC(=O)Nc3cccc(F)c3)nc3ccccc3n12 [Example 24, 1-(3-fluoro-phenyl)-3-[4-(1-methyl-[1,2,4]triazolo[4,3-a]quinoxaline-4-ylamino)-butyl]-urea]",67,–
"Cc1nnc2c(NCCCCNC(=O)OCc3ccccc3)nc3ccccc3n12 [Example 25, [4-(1-methyl-[1,2,4]triazolo[4,3-a]quinoxaline-4-ylamino)-butyl]-carbamic acid benzylester]",55,–

# More lines, now with the values ahead:
IC50 [1] [nM],IC50 [2] [nM],Compound
34,≤ 50,"COc1cc2nc(NCCCCNC(=O)CC(C)C)c3nnc(C(C)C)n3c2cc1OC [Example 603, N-[4-(1-isopropyl-7,8-dimethoxy-[1,2,4]triazolo[4,3-a]quinoxaline-4-ylamino)-butyl]-3-methyl-butyramide]"
22,≤ 50,"Cc1nnc2c(NCCCCNC(=O)[C@H](O)C(C)C)nc3cc4c(cc3n12)OCCO4 [Example 182, 2-(R)-hydroxy-3-methyl-N-[4-(1-methyl-8,9-dihydro-7,10-dioxa-2,3,5,11b-tetraaza-cyclopenta[a]anthracene-4-ylamino)-butyl]-butyramide]"
21,≤ 50,"Cc1nnc2c(NCCCCNC(=O)[C@H](O)C(C)C)nc3cc(OCCN4CCOCC4)ccc3n12 [Example 434, 2-(R)-hydroxy-N-{4-[7-(2-morpholine-4-yl-ethoxy)-1-methyl-[1,2,4]triazolo[4,3-a]quinoxaline-4-ylamino]-butyl}-3-methyl-butyramide]"
35,≤ 50,"COc1cc2nc(NCCCCNC(=O)CC(C)C)c3nnc(C)n3c2c(OC)c1OC [Example 488, 3-methyl-N-[4-(7,8,9-trimethoxy-1-methyl-[1,2,4]triazolo[4,3-a]quinoxaline-4-ylamino)-butyl]-butyramide]"
17,≤ 50,"COCCOc1ccc2c(c1)nc(NCCCCNC(=O)Nc1ccccc1)c1nnc(C)n12 [Example 427, 3-{4-[7-(2-methoxy-ethoxy)-1-methyl-[1,2,4]triazolo[4,3-a]quinoxaline-4-ylamino]-butyl}-1-phenyl-urea]"
41,≤ 50,"COCCOc1ccc2c(c1)nc(NCCCCNC(=O)C(C)(C)OC(C)=O)c1nnc(C)n12 [Example 384, acetic acid-1-{4-[7-(2-methoxy-ethoxy)-1-methyl-[1,2,4]triazolo[4,3-a]quinoxaline-4-ylamino]-butylcarbamoyl}-1-methyl-ethylester]"
12,≤ 50,"COCCOc1ccc2c(c1)nc(NCCCCNC(=O)[C@@H](NC(=O)CC(C)C)C(C)C)c1nnc(C)n12 [Example 401, (S)-N-{4-[7-(2-methoxy-ethoxy)-1-methyl-[1,2,4]triazolo[4,3-a]quinoxaline-4-ylamino]-butyl}-3-methyl-2-(3-methyl-butyrylamino)-butyramide]"
30,≤ 50,"Cc1noc(C)c1-c1ccc2nc(NCCCCNC(=O)OC(C)(C)C)c3nnc(C)n3c2c1 [Example 578, {4-[8-(3,5-dimethyl-isoxazol-4-yl)-1-methyl-[1,2,4]triazolo[4,3-a]quinoxaline-4-ylamino]-butyl}-carbamic acid-tert-butylester]"
